# Columns and labels:
# Experiment in all cases: relative viability (nuclei count vs DMSO), 5 days (fraction); higher = more cells survive
# NCI-H2009 = system: NCI-H2009
# Procedure, shortened: (§1)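 Cells from lung cancer lines were seeded into 1536-well plates and, one day later, dosed by pin tool. Treatments were either a single drug or a fixed dose of an anchor drug with five library-drug doses (not always all listed) in √10 steps. After 5 days, nuclei were stained in a one-step fixation (final 0.05% Triton X-100, 1% formaldehyde, 1 ug/ml Hoechst) and counted on 4× images, and relative viability is the treated-to-vehicle nuclei ratio, as the median of duplicate plates.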
# NCI-H3122 = system: NCI-H3122
# Procedure, shortened: as §1
# NCI-H2085 = system: NCI-H2085
# Procedure, shortened: as §1
# HCC-44 = system: HCC-44
# Procedure, shortened: as §1
# HCC-366 = system: HCC-366
# Procedure, shortened: as §1
# PC-14 = system: PC-14
# Procedure, shortened: as §1
# NCI-H1734 = system: NCI-H1734
# Procedure, shortened: as §1
# ABC-1 = system: ABC-1
# Procedure, shortened: as §1
# COR-L23 = system: COR-L23
# Procedure, shortened: as §1
# ChaGo-K-1 = system: ChaGo-K-1
# Procedure, shortened: as §1
# EPLC-272H = system: EPLC-272H
# Procedure, shortened: as §1
# NCI-H2023 = system: NCI-H2023
# Procedure, shortened: as §1
# NCI-H1944 = system: NCI-H1944
# Procedure, shortened: as §1
# HCC-827 = system: HCC-827
# Procedure, shortened: as §1
# NCI-H1793 = system: NCI-H1793
# Procedure, shortened: as §1
# LCLC-103H = system: LCLC-103H
# Procedure, shortened: as §1
# HCC-15 = system: HCC-15
# Procedure, shortened: as §1
# NCI-H2347 = system: NCI-H2347
# Procedure, shortened: as §1
# SW 1573 = system: SW 1573
# Procedure, shortened: as §1
# NCI-H1355 = system: NCI-H1355
# Procedure, shortened: as §1
# NCI-H2405 = system: NCI-H2405
# Procedure, shortened: as §1
compound,measurement,setting,value
CCNC(=O)c1noc(-c2cc(C(C)C)c(O)cc2O)c1-c1ccc(CN2CCOCC2)cc1 [Luminespib] + Nc1ncn([C@H]2C[C@H](O)[C@@H](CO)O2)c(=O)n1 [Decitabine] (partner 2 µM),relative viability,NCI-H2009; first compound 0.002 µM,0.405
same,relative viability,NCI-H2009; first compound 0.006325 µM,0.364
same,relative viability,NCI-H2009; first compound 0.02 µM,0.368
same,relative viability,NCI-H2009; first compound 0.06325 µM,0.187
same,relative viability,NCI-H2009; first compound 0.2 µM,0.135
same,relative viability,NCI-H3122; first compound 0.002 µM,0.474
same,relative viability,NCI-H3122; first compound 0.006325 µM,0.413
same,relative viability,NCI-H3122; first compound 0.02 µM,0.29
same,relative viability,NCI-H3122; first compound 0.06325 µM,0.418
same,relative viability,NCI-H3122; first compound 0.2 µM,0.403
same,relative viability,NCI-H2085; first compound 0.002 µM,0.547
same,relative viability,NCI-H2085; first compound 0.006325 µM,0.577
same,relative viability,NCI-H2085; first compound 0.02 µM,0.519
same,relative viability,NCI-H2085; first compound 0.06325 µM,0.486
same,relative viability,NCI-H2085; first compound 0.2 µM,0.346
same,relative viability,HCC-44; first compound 0.002 µM,0.969
same,relative viability,HCC-44; first compound 0.006325 µM,0.953
same,relative viability,HCC-44; first compound 0.02 µM,0.959
same,relative viability,HCC-44; first compound 0.06325 µM,0.954
same,relative viability,HCC-44; first compound 0.2 µM,0.863
same,relative viability,HCC-366; first compound 0.002 µM,0.327
same,relative viability,HCC-366; first compound 0.006325 µM,0.359
same,relative viability,HCC-366; first compound 0.02 µM,0.31
same,relative viability,HCC-366; first compound 0.06325 µM,0.0527
same,relative viability,HCC-366; first compound 0.2 µM,0.038
same,relative viability,PC-14; first compound 0.002 µM,0.23
same,relative viability,PC-14; first compound 0.006325 µM,0.21
same,relative viability,PC-14; first compound 0.02 µM,0.123
same,relative viability,PC-14; first compound 0.06325 µM,0.076
same,relative viability,PC-14; first compound 0.2 µM,0.0786
same,relative viability,NCI-H1734; first compound 0.002 µM,0.489
same,relative viability,NCI-H1734; first compound 0.006325 µM,0.469
same,relative viability,NCI-H1734; first compound 0.02 µM,0.448
same,relative viability,NCI-H1734; first compound 0.06325 µM,0.251
same,relative viability,NCI-H1734; first compound 0.2 µM,0.159
same,relative viability,ABC-1; first compound 0.002 µM,1.19
same,relative viability,ABC-1; first compound 0.006325 µM,1.18
same,relative viability,ABC-1; first compound 0.02 µM,1.16
same,relative viability,ABC-1; first compound 0.06325 µM,0.755
same,relative viability,ABC-1; first compound 0.2 µM,0.344
same,relative viability,COR-L23; first compound 0.002 µM,0.502
same,relative viability,COR-L23; first compound 0.006325 µM,0.374
same,relative viability,COR-L23; first compound 0.02 µM,0.353
same,relative viability,COR-L23; first compound 0.06325 µM,0.0888
same,relative viability,COR-L23; first compound 0.2 µM,0.0903
same,relative viability,ChaGo-K-1; first compound 0.002 µM,0.544
same,relative viability,ChaGo-K-1; first compound 0.006325 µM,0.492
same,relative viability,ChaGo-K-1; first compound 0.02 µM,0.528
same,relative viability,ChaGo-K-1; first compound 0.06325 µM,0.522
same,relative viability,ChaGo-K-1; first compound 0.2 µM,0.535
same,relative viability,EPLC-272H; first compound 0.002 µM,0.393
same,relative viability,EPLC-272H; first compound 0.006325 µM,0.337
same,relative viability,EPLC-272H; first compound 0.02 µM,0.311
same,relative viability,EPLC-272H; first compound 0.06325 µM,0.282
same,relative viability,EPLC-272H; first compound 0.2 µM,0.106
same,relative viability,NCI-H2023; first compound 0.002 µM,0.242
same,relative viability,NCI-H2023; first compound 0.006325 µM,0.218
same,relative viability,NCI-H2023; first compound 0.02 µM,0.136
same,relative viability,NCI-H2023; first compound 0.06325 µM,0.0602
same,relative viability,NCI-H2023; first compound 0.2 µM,0.0539
same,relative viability,NCI-H1944; first compound 0.002 µM,0.493
same,relative viability,NCI-H1944; first compound 0.006325 µM,0.454
same,relative viability,NCI-H1944; first compound 0.02 µM,0.405
same,relative viability,NCI-H1944; first compound 0.06325 µM,0.405
same,relative viability,NCI-H1944; first compound 0.2 µM,0.415
same,relative viability,HCC-827; first compound 0.002 µM,0.36
same,relative viability,HCC-827; first compound 0.006325 µM,0.333
same,relative viability,HCC-827; first compound 0.02 µM,0.285
same,relative viability,HCC-827; first compound 0.06325 µM,0.166
same,relative viability,HCC-827; first compound 0.2 µM,0.147
same,relative viability,NCI-H1793; first compound 0.002 µM,0.499
same,relative viability,NCI-H1793; first compound 0.006325 µM,0.457
same,relative viability,NCI-H1793; first compound 0.02 µM,0.369
same,relative viability,NCI-H1793; first compound 0.06325 µM,0.151
same,relative viability,NCI-H1793; first compound 0.2 µM,0.185
same,relative viability,LCLC-103H; first compound 0.002 µM,0.732
same,relative viability,LCLC-103H; first compound 0.006325 µM,0.702
same,relative viability,LCLC-103H; first compound 0.02 µM,0.721
same,relative viability,LCLC-103H; first compound 0.06325 µM,0.74
same,relative viability,LCLC-103H; first compound 0.2 µM,0.691
same,relative viability,HCC-15; first compound 0.002 µM,0.695
same,relative viability,HCC-15; first compound 0.006325 µM,0.565
same,relative viability,HCC-15; first compound 0.02 µM,0.73
same,relative viability,HCC-15; first compound 0.06325 µM,0.144
same,relative viability,HCC-15; first compound 0.2 µM,0.14
same,relative viability,NCI-H2347; first compound 0.002 µM,0.603
same,relative viability,NCI-H2347; first compound 0.006325 µM,0.567
same,relative viability,NCI-H2347; first compound 0.02 µM,0.656
same,relative viability,NCI-H2347; first compound 0.06325 µM,0.431
same,relative viability,NCI-H2347; first compound 0.2 µM,0.373
same,relative viability,SW 1573; first compound 0.002 µM,0.569
same,relative viability,SW 1573; first compound 0.006325 µM,0.456
same,relative viability,SW 1573; first compound 0.02 µM,0.159
same,relative viability,SW 1573; first compound 0.06325 µM,0.072
same,relative viability,SW 1573; first compound 0.2 µM,0.0827
same,relative viability,NCI-H1355; first compound 0.002 µM,0.359
same,relative viability,NCI-H1355; first compound 0.006325 µM,0.354
same,relative viability,NCI-H1355; first compound 0.02 µM,0.334
same,relative viability,NCI-H1355; first compound 0.06325 µM,0.346
same,relative viability,NCI-H1355; first compound 0.2 µM,0.243
same,relative viability,NCI-H2405; first compound 0.002 µM,0.79
same,relative viability,NCI-H2405; first compound 0.02 µM,0.627
same,relative viability,NCI-H2405; first compound 0.06325 µM,0.297
same,relative viability,NCI-H2405; first compound 0.2 µM,0.191

# Source: the supplement of paper PMC10307832
